Here are results for eleven compounds from ChEMBL document CHEMBL5212743, “Selectivity Literature for EUbOPEN Chemogenomics Library wave 3” (2023).

The structures appear in SMILES notation.

In assay [1] the target is Receptor-type tyrosine-protein kinase FLT3 (Homo sapiens) (UniProt P36888). Nature of the assay: Selectivity interaction (Kinase panel) EUB0000214b FLT3. The settings on record: at […].
Assay [2] has as its target Tyrosine-protein kinase ABL1 (Homo sapiens, UniProt P00519). The experiment in a line: Selectivity interaction (KiNativ profiling (A375 live cells treatment assays)) EUB0000238b ABL1. Conditions: at 1 µM.
The target of assay [3] is Tyrosine-protein kinase ABL2 (Homo sapiens) (UniProt P42684). Nature of the assay: Selectivity interaction (KiNativ profiling (A375 live cells treatment assays)) EUB0000238b ABL2. The settings on record: at 1 µM.
The target in assay [4] is Phosphatidylinositol 4,5-bisphosphate 3-kinase catalytic subunit beta isoform (Homo sapiens) (UniProt P42338). Nature of the assay: Selectivity interaction (KinomeScan (DiscoverX)) EUB0000014b PIK3CB. The settings on record: at 1 µM.
Assay [5] deals with Substance-K receptor (Homo sapiens) (UniProt P21452). The experiment in a line: Selectivity interaction (CEREP panel (ligand receptors, ion channels, transporters)) EUB0000330a TACR2. Conditions: at 1 µM.
The target of assay [6] is CREB-binding protein (Homo sapiens, UniProt Q92793). The experiment in a line: Selectivity interaction (Bromodomain panel (DSF assay)) EUB0000330a CREBBP. On the technique in general: Differential scanning fluorimetry follows unfolding on heating by fluorescence.
For assay [7], the target named is Mitogen-activated protein kinase kinase kinase 7 (Homo sapiens) (UniProt O43318). The experiment in a line: Selectivity interaction (Dundee panel (140 kinases and 19 lipid kinases)) EUB0000631a MAP3K7. The settings on record: at 1 µM.
The target of assay [8] is T1, Mitogen-activated protein kinase 15 (Homo sapiens) (UniProt Q8TD08).
T1 sequence (whole entry): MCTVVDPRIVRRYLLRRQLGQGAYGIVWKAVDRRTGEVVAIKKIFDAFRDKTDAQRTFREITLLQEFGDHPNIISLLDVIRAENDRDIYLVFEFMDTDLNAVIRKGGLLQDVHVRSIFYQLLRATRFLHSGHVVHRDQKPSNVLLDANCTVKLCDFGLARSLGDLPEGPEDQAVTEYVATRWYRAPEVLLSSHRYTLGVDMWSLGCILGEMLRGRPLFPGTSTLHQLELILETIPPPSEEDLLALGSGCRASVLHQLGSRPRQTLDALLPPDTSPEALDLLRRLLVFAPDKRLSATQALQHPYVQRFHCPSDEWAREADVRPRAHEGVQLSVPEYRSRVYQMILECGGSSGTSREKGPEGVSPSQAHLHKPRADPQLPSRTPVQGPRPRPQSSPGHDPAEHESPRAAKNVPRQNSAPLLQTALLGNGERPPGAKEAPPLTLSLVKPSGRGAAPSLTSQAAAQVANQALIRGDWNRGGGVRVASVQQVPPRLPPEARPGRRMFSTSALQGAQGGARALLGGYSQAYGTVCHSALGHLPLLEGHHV
The experiment in a line: Selectivity interaction (Dundee panel (140 kinases and 19 lipid kinases)) EUB0000631a MAPK15. The settings on record: at 1 µM.

Assay [9] addresses Serine/threonine-protein kinase 17A (Homo sapiens) (UniProt Q9UEE5). The experiment in a line: Selectivity interaction (Kinase panel (ProQinase)) EUB0000631a STK17A. The settings on record: at 1 µM.
For assay [10], the target named is T2, Adenosine receptor A1 (Homo sapiens) (UniProt P30542).
T2 sequence (whole entry): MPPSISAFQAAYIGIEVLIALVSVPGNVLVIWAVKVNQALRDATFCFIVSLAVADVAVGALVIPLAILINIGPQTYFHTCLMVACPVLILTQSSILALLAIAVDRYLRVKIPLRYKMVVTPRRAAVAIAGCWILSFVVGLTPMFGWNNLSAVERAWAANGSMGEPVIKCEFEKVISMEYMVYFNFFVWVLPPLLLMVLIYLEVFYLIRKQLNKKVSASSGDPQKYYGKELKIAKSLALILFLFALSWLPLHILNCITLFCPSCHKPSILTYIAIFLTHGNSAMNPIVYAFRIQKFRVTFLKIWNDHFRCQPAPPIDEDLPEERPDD
Nature of the assay: Selectivity interaction (Eurofins CEREP Diversity Profiling (71 receptors, ion channels, and 25 other enzymes)) EUB0000231c ADORA1. The settings on record: at 10 µM.

In assay [11] the target is cGMP-inhibited 3',5'-cyclic phosphodiesterase 3A (Homo sapiens, UniProt Q14432). The experiment in a line: Selectivity interaction (Eurofins CEREP Diversity Profiling (71 receptors, ion channels, and 25 other enzymes)) EUB0000231c PDE3A. The settings on record: at 10 µM.
Assay [12] has as its target 3',5'-cyclic-AMP phosphodiesterase 4D (Homo sapiens) (UniProt Q08499). The experiment in a line: Selectivity interaction (Eurofins CEREP Diversity Profiling (71 receptors, ion channels, and 25 other enzymes)) EUB0000231c PDE4D. Conditions: at 10 µM.
Assay [13] deals with cGMP-dependent 3',5'-cyclic phosphodiesterase (Homo sapiens) (UniProt O00408). Nature of the assay: Selectivity interaction (Eurofins CEREP Diversity Profiling (71 receptors, ion channels, and 25 other enzymes)) EUB0000231c PDE2A. Conditions: at 10 µM.
Assay [14] deals with T3, Gamma-aminobutyric acid receptor subunit alpha-1 (Homo sapiens) (UniProt P14867).
T3 sequence (whole entry): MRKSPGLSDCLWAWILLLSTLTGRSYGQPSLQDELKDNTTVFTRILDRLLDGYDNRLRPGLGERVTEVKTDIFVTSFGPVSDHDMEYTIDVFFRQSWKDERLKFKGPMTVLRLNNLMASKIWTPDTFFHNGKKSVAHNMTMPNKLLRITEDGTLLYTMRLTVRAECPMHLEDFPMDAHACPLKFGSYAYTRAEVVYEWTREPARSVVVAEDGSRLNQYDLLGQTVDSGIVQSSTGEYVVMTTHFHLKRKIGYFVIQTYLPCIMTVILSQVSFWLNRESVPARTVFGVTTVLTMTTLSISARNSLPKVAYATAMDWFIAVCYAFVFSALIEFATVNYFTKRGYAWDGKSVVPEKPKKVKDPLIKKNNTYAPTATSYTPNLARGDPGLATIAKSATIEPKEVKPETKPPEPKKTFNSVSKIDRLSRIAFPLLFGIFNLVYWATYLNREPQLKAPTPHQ
The experiment in a line: Selectivity interaction (Eurofins CEREP Diversity Profiling (71 receptors, ion channels, and 25 other enzymes)) EUB0000231c GABRA1. Conditions: at 10 µM.

For assay [15], the target named is MAP/microtubule affinity-regulating kinase 3 (Homo sapiens) (UniProt P27448). The experiment in a line: Selectivity interaction (KinomeScan (DiscoverX)) EUB0000315b MARK3. The settings on record: at 1 µM.
Assay [16] has as its target SRSF protein kinase 2 (Homo sapiens) (UniProt P78362). Nature of the assay: Selectivity interaction (KinomeScan (DiscoverX)) EUB0000315b SRPK2. The settings on record: at 1 µM.
The subject of assay [17] is Receptor-type tyrosine-protein kinase FLT3 (Homo sapiens), P36888 [UNDEFINED MUTATION]. The experiment in a line: Selectivity interaction (KinomeScan (DiscoverX)) EUB0000315b FLT3. The settings on record: at 1 µM.
Assay [18] addresses Serine/threonine-protein kinase DCLK2 (Homo sapiens) (UniProt Q8N568). The experiment in a line: Selectivity interaction (KinomeScan (Ambit)) EUB0000687a DCLK2. The settings on record: at 10 µM.
In assay [19] the target is Serine/threonine-protein kinase PLK4 (Homo sapiens) (UniProt O00444). The experiment in a line: Selectivity interaction (KinomeScan (Ambit)) EUB0000687a PLK4. The settings on record: at 10 µM.
The target in assay [20] is Phosphatidylinositol 4,5-bisphosphate 3-kinase catalytic subunit alpha isoform (Homo sapiens, UniProt P42336). The experiment in a line: Selectivity interaction (KinomeScan (DiscoverX)) EUB0000336a PIK3CA. The settings on record: at 1 µM.
In assay [21] the target is T4, Phosphatidylinositol 5-phosphate 4-kinase type-2 gamma (Homo sapiens) (UniProt Q8TBX8).
T4 sequence (whole entry): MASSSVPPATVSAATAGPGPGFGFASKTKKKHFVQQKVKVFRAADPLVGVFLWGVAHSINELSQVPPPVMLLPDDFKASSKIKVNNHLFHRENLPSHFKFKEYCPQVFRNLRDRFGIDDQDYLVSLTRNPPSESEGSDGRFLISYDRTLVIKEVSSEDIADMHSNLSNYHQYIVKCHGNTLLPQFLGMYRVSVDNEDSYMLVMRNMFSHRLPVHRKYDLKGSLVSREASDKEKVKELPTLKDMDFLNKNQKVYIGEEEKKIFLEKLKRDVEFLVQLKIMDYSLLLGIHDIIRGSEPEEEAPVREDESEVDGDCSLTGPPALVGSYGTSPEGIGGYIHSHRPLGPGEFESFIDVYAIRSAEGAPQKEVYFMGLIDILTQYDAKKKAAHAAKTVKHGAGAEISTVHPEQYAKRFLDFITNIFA
The experiment in a line: Selectivity interaction (KinomeScan (DiscoverX)) EUB0000336a PIP4K2C. Conditions: at 1 µM.

Assay [22] concerns the target Tyrosine-protein kinase receptor Tie-1 (Homo sapiens) (UniProt P35590). Nature of the assay: Selectivity interaction (KinomeScan (DiscoverX)) EUB0000336a TIE1. The settings on record: at 1 µM.
The target in assay [23] is Serine/threonine-protein kinase Nek5 (Homo sapiens) (UniProt Q6P3R8). Nature of the assay: Selectivity interaction (KinomeScan (DiscoverX)) EUB0000336a NEK5. The settings on record: at 1 µM.
Assay [24] concerns the target Epidermal growth factor receptor (Homo sapiens, UniProt P00533). Nature of the assay: Selectivity interaction (KinomeScan (DiscoverX)) EUB0000336a EGFR. The settings on record: at 1 µM.
The target in assay [25] is 5-hydroxytryptamine receptor 2B (Homo sapiens, UniProt P41595). Nature of the assay: Selectivity interaction (GPCR panel (PDSP screen)) EUB0000336a HTR2B. The settings on record: at 1 µM.
The target of assay [26] is 5-hydroxytryptamine receptor 7 (Homo sapiens, UniProt P34969). The experiment in a line: Selectivity interaction (GPCR panel (PDSP screen)) EUB0000317b HTR7. Conditions: at 10 µM.
Assay [27] addresses Serine/threonine-protein kinase 38-like (Homo sapiens, UniProt Q9Y2H1). Nature of the assay: Selectivity interaction (KinomeScan (DiscoverX)) EUB0000317b STK38L. The settings on record: at 1 µM.
Assay [28] addresses Casein kinase I isoform epsilon (Homo sapiens, UniProt P49674). The experiment in a line: Selectivity interaction (Radioisotope filter binding assay (Reaction Biology)) EUB0000696a CSNK1E. The settings on record: at 1 µM.

Sequence of Phosphatidylinositol 4,5-bisphosphate 3-kinase catalytic subunit alpha isoform (P42336 whole entry, canonical isoform): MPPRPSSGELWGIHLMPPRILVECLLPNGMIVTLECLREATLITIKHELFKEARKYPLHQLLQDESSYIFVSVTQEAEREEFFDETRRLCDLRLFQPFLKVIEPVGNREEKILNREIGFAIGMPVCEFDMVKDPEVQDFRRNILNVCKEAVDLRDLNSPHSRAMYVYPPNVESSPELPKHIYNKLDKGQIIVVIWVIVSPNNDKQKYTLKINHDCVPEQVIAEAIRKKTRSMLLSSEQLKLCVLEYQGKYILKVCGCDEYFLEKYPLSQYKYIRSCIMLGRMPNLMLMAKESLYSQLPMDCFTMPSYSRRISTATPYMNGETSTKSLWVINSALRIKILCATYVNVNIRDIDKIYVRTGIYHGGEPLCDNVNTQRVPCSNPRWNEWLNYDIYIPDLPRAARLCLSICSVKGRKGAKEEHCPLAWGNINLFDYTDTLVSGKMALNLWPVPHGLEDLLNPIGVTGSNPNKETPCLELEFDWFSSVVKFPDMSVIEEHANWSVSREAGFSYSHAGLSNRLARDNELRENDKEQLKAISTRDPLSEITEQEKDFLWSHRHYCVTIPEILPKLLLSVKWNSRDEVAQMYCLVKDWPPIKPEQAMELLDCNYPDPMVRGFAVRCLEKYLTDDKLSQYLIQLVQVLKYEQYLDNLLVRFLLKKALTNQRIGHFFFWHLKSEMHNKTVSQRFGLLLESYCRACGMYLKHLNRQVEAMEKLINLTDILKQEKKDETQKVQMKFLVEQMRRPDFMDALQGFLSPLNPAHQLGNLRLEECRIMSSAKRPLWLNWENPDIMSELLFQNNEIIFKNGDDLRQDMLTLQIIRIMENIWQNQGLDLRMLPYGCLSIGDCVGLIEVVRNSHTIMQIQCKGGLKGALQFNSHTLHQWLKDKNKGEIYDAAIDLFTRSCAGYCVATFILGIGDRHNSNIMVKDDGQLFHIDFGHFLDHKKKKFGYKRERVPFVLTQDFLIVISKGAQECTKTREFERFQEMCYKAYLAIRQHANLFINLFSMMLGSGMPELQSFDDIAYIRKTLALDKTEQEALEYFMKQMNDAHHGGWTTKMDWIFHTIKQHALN
Sequence of SRSF protein kinase 2 (Homo sapiens) (P78362 whole entry, looked up): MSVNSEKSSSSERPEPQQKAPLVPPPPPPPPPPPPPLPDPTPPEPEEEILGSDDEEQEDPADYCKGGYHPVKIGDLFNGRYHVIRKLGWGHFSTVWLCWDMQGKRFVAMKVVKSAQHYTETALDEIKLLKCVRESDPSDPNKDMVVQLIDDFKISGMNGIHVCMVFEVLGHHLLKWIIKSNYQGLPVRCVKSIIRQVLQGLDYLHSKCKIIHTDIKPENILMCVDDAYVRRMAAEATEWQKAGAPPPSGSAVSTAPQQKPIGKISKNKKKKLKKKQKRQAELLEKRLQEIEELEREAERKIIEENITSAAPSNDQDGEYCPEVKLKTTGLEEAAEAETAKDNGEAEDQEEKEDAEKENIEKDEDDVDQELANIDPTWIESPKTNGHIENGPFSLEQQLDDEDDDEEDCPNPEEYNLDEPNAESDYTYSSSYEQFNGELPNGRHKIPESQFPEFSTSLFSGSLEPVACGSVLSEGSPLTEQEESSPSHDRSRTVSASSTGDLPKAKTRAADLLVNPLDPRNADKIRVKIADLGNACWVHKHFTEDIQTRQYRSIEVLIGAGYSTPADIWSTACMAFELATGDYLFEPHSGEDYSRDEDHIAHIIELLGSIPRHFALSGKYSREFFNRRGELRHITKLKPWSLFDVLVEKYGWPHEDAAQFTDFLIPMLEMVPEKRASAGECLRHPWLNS
Sequence of Tyrosine-protein kinase ABL2 (Homo sapiens) (P42684 whole entry, canonical isoform): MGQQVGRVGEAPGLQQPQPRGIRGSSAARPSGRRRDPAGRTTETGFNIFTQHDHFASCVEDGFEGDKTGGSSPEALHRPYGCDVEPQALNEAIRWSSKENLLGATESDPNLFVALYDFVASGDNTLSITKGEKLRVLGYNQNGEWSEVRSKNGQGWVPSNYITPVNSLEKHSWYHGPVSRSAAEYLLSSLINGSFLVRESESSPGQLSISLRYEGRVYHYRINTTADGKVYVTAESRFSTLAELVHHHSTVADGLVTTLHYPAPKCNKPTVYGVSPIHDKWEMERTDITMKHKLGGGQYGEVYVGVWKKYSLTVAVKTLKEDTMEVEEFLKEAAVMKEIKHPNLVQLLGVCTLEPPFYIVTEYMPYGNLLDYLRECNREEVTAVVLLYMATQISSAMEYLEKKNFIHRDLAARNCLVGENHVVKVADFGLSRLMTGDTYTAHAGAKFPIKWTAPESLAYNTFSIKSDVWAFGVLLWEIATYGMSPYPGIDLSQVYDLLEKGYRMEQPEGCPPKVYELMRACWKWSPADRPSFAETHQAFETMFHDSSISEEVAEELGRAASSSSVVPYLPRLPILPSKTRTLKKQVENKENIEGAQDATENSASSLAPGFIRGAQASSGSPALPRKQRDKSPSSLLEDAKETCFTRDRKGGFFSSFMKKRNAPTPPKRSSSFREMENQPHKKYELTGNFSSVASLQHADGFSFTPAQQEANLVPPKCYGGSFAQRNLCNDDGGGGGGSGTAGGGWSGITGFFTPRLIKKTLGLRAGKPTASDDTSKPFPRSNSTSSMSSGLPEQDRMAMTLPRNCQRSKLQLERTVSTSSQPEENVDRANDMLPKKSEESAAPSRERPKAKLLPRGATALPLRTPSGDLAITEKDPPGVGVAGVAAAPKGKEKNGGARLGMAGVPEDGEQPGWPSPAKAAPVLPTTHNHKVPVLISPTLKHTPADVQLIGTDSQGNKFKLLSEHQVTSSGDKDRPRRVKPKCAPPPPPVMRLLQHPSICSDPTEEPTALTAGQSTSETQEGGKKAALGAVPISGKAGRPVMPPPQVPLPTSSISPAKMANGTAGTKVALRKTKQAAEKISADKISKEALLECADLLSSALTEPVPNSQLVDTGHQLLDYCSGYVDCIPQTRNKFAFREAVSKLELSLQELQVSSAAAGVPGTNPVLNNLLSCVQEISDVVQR
Sequence of Serine/threonine-protein kinase 17A (Homo sapiens) (Q9UEE5 whole entry): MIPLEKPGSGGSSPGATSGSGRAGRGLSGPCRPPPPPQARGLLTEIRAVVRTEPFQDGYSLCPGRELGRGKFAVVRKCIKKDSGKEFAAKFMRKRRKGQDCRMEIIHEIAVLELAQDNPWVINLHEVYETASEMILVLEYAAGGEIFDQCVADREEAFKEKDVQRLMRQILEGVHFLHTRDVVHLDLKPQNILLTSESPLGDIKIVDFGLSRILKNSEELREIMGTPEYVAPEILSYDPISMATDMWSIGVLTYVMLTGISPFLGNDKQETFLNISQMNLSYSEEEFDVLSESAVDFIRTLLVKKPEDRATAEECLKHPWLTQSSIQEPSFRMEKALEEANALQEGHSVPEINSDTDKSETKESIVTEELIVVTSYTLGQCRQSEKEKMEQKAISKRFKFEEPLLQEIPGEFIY
Sequence of Tyrosine-protein kinase ABL1 (P00519 whole entry): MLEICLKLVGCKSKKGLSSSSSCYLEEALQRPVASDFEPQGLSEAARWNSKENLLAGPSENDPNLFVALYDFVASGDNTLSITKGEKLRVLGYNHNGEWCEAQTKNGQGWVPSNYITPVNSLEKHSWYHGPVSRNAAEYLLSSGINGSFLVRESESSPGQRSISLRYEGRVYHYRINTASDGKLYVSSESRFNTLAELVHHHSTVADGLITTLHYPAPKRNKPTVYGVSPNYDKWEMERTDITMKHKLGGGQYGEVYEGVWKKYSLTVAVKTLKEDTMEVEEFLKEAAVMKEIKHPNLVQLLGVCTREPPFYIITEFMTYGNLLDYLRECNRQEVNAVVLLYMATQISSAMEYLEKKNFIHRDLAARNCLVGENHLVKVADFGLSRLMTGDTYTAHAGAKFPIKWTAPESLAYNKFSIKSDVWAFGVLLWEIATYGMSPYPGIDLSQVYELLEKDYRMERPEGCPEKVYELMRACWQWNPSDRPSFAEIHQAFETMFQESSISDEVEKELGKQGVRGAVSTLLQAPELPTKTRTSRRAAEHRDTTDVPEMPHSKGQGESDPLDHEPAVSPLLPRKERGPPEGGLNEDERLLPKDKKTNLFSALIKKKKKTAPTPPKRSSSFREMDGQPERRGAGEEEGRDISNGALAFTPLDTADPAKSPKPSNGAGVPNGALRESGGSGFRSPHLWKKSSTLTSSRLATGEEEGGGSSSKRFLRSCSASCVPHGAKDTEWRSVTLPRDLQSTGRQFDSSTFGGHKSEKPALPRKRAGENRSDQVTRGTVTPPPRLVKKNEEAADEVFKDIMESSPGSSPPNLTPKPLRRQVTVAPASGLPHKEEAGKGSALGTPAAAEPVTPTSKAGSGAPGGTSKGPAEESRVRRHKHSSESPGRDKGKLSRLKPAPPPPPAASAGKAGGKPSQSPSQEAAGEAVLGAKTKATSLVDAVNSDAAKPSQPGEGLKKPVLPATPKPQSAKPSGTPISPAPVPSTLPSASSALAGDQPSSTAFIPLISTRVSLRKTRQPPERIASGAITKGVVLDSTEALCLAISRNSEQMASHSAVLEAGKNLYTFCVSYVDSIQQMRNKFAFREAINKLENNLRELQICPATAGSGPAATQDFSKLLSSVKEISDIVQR
Sequence of Substance-K receptor (Homo sapiens) (P21452 whole entry): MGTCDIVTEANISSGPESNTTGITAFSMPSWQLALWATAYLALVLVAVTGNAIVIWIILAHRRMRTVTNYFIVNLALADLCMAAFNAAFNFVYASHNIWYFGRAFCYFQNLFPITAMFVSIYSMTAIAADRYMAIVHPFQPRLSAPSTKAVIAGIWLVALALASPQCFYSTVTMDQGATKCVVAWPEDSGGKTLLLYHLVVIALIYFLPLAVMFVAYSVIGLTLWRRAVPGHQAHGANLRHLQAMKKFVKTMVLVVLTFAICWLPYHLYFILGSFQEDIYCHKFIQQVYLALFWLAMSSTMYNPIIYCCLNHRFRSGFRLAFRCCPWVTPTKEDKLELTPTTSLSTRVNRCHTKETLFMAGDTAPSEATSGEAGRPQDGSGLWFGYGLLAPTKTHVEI

On to `O=C(c1ccc(C(=O)N2CCC(N3CCCC3)CC2)c(Nc2ccccc2)c1)N1CCC(N2CCCC2)CC1`, for which the % of control in assay [1] turned out to be 64%.

Turning to `CNc1cc(Oc2cc(C(=O)Nc3cc(N4CCN(C)CC4)cc(C(F)(F)F)c3)ccc2C)ncn1`, the % of inhibition in assay [2] and in assay [3] was 49% each time.

Regarding `Nc1ccc(C(=O)Nc2cccc(-c3nc(N4CCOCC4)c4oc5ncccc5c4n3)c2)cn1`, the % of control in [4] came to 9.8%.

Compound `Cc1sc2c(c1C)C(c1ccc(Cl)cc1)=N[C@@H](CC(=O)OC(C)(C)C)c1nnc(C)n1-2` returned a % bound fraction in assay [5] of 48%. In addition, the dTm in assay [6] was 1.04 K.

With `CC(C)(O)CNc1ncc(-c2ccnc(Nc3ccnc(Cl)c3)n2)c(CC2CC2)n1`, the % of activity remaining in assay [7] came out at 40%; in assay [8] it was 32%; in [9] it was 45%.

Consider `CC(=O)c1cc(-c2cc(C(=O)NC3CC3)ccc2C)c2ncccn12`, for which the % of control in assay [10] stood at 14%; in assay [11] it was 48%; in assay [12] it was 28%; in assay [13], 25%; in [14], 47%.

For `Cn1nc(C(F)(F)F)cc1-c1cnc(N2CCc3cc(S(=O)(=O)Nc4c(F)cc(Cl)cc4F)cc(N4CCCC4=O)c32)nc1`, the % of control amounted to 12% in assay [15], 34% in assay [16] and 32% in [17].

Consider `CCOc1cc(C(=O)N2CCC(N3CCN(C)CC3)CC2)ccc1Nc1ncc2c(n1)N(C1CCCC1)c1ccccc1C(=O)N2C`, for which the % of control turned out to be 3.6% in [18] and 5.1% in assay [19].

On to `Cc1nc(Cc2cccc(C(F)(F)F)c2)sc1-c1ccc(C(N)=O)nc1`, for which the % of control in assay [20] amounted to 15%; in assay [21], 0.3%; in assay [22], 28%; in [23] it was 35%; in [24], 0%. In [25], this compound displayed a % of inhibition of 34%.

`Cc1cc(-n2nc(Cc3cc(F)cc(C(F)(F)F)c3)nc2C)ccc1C(N)=O`: the inhibition (in general, the drop in the measured response relative to a control, in per cent) in [26] is 21%. The % of control in assay [27] was found to be 49%.

In turn, `CC(C)Oc1ccc(-c2nn([C@@H](C)c3oc4ccc(F)cc4c(=O)c3-c3cccc(F)c3)c3ncnc(N)c23)cc1F` came in with a % of control in assay [28] of 39%.
